*1 amine or outer side, *2 acyl side, *3 side chain or, on linkers, in order; H or OH if unused. Side-chain parts run from the residue outwards. The star is where a group is joined. C18 diacid = O=C(O)CCCCCCCCCCCCCCCCC(=O)*; γGlu = O=C(O)[C@H](CCC(=O)[*:2])N[*:1]; Isovaleryl = CC(C)CC(=O)*; Ahx = NCCCCCC(=O)O
Legend:
[1] = target: T1, human NPY1 receptor (hY1R) (Homo sapiens, UniProt P25929); assay: HTRF cAMP Gi assay, hY1R; format: cell-based; details: CHO-K1 cells
T1 construct: expressed in transfected cells; host or cells: CHO-K1
T1 sequence (P25929 1-384): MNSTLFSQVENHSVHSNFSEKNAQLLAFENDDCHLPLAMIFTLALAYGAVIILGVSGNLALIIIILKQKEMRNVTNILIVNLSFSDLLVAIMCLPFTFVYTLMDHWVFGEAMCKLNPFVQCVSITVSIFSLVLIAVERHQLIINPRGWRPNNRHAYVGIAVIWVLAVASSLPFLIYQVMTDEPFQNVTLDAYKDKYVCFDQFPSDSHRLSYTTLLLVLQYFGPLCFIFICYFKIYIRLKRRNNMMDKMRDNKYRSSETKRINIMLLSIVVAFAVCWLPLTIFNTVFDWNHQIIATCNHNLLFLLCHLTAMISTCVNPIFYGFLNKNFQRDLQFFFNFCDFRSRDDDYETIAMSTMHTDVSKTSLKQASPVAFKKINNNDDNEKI
Description: (§1) Briefly, the production of intracellular cAMP will generate a competition between unlabeled cAMP and exogenously added d2-cAMP for anti-cAMP antibodies conjugated to cryptate. CHO-K1 cells stably expressing the human NPY1, NPY2, NPY4 and NPY5 receptors were used with the cells brought to life from a frozen stock immediately before assay performance. 2000 cells per well were applied for all four NPY receptor subtype assays. A 384-well format was used applying a total volume of 20 μl using 5 μl cells, 2.5 μl peptide agonist, 2.5 μl forskolin and 5 μl of each of the fluorophores. […] Concentration-response evaluation of compounds was performed with 11 concentrations of agonist peptides (covering 3 decades). EC50 values were calculated by nonlinear regression using sigmoid concentration-response with variable slope.

[2] = target: T2, human NPY4 receptor (hY4R) (Homo sapiens, UniProt P50391); assay: HTRF cAMP Gi assay, hY4R; format: cell-based; details: CHO-K1 cells
T2 construct: expressed in transfected cells; host or cells: CHO-K1
T2 sequence (P50391 whole entry): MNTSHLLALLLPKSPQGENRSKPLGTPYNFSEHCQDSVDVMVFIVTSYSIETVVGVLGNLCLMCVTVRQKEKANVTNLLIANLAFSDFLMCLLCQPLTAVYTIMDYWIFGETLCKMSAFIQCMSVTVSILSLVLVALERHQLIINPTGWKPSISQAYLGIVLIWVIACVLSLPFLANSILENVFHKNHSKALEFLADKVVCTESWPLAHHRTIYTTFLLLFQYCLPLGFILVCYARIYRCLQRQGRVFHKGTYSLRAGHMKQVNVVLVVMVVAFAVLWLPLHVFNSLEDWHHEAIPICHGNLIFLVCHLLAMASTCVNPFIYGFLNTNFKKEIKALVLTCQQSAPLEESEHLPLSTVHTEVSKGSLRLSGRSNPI
Description: as §1

[3] = target: T3, Human Neuropeptide Y2 Receptor (Homo sapiens, UniProt P49146); assay: Radioligand binding competition assay (RLB); details: Table 3, 125I-PYY(1-36) competition; read-out: Ki
T3 construct: purchased CHEMICON HTS066M
T3 sequence (P49146 1-381): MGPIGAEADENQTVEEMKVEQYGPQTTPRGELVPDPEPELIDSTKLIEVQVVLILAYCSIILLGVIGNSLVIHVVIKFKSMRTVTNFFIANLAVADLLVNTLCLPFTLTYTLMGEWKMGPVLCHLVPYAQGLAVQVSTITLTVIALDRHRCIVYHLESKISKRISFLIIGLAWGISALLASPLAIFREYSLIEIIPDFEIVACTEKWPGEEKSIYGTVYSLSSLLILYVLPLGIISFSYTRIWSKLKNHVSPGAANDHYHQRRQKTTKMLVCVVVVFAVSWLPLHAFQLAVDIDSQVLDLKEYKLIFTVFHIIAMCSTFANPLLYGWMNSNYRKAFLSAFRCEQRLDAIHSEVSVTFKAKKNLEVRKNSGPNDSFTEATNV
Summary of the method: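 Displacement of radioligand is measured after 2 h at room temperature with receptor membranes in Mg2+/Ca2+ HEPES buffer, pH 7.4. Filter-bound radioactivity is counted and IC50 obtained from curve fitting.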

[4] = target: T3, Human Neuropeptide Y2 Receptor; assay: Activity (RLB binding) after incubation in solutions at different pH values; details: apparent Ki of filtrate after incubation at pH8.1-8.2, assumed 10 mg/ml; read-out: RLB 8 (pH8.1-8.2)
Description: The filtration RLB assay was carried out in 96-well plates in a final volume of 100 μl per well. Freeze-dried test peptides were dissolved in 100% dimethyl sulfoxide (DMSO) to stock solutions of 1 mM and serial dilutions were performed in assay buffer (50 mM HEPES, 5 mM MgCl2, 1 mM CaCl2, pH 7.4) containing 0.2% ovalbumin. […] Next, 80 μL membranes (HTS066M, ChemiSCREEN™ Human Neuropeptide Y2 Receptor Membrane Preparation, CHEMICON) were added to each well to give a final protein concentration of 0.5 μg/well. The plates were sealed and incubated at room temperature for 2 hours in a plate shaker set at 400 rpm. The incubation was stopped by vacuum filtration onto 0.5% polyethylene amine (PE) presoaked GF/C filters using a 96-well FilterMate™ harvester (Perkin Elmer) followed by four washes with 300 μl/well ice-cold wash buffer (50 mM HEPES, 500 mM NaCl, pH7.4). Filter plates were then dried for 60 min at room temperature and the bottom of the plates was sealed with backing tape UniFilter-96. Finally, 50 μl/well scintillation counter cocktail (Microscint20, Packard) was added and the radioactivity was counted in the Packard TopCount NXT scintillation counter. IC50 values (the half maximal inhibitory concentration of the agonist) were calculated by nonlinear regression analysis of sigmoidal dose-response curves.
The peptide was (partially) dissolved by shaking the filter unit horizontally at approx. 400 rpm for 2 hours at room temperature. The sample was filtered to remove any insoluble particles.

NMRI mice = assay: Effect on acute food intake in normal NMRI mice; format: in vivo; details: 5 nmol/kg subcutaneously once
Description: Male NMRI mice were obtained from Charles River (Charles River, Research Models & Services Germany GmbH) or from JanVier (JanVier Labs, France) at 5 weeks of age. […] Room temperature was controlled to 21° C.±1° C., with 60%±20% humidity.
Animals were transferred 5-7 days before the start of the study to a real-time food intake monitoring system, HM-2 system (MBRose, Denmark), to allow acclimatization to experimental conditions. As the animals were uniquely identified with microchips, each individual animal was identified by its microchip upon entry and exit from the food channel. Randomization of the mice for each study group (n=7-8) was based on body weight measured the day before the start of the study. A vehicle-treated (50 mM phosphate buffer pH7 with 5% Mannitol) group was included in each experiment. Six hours before the start of the night phase animals were fasted. One hour before the dark phase animals were dosed once subcutaneously (5 nmol/kg) with test peptide. […] The food intake of the treated groups was normalized (in %) to the average food intake of the group receiving vehicle (Table 7). Statistical significance was evaluated using One-way analysis of variance with Turkey's multiple comparison test. P<0.05 was considered statistically significant.

Solubility determination = details: for Sol6: pH 6; for Sol7: pH 7
Summary of the method: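 Sample: TFA-salt peptide at 10 mg/ml target in 0.1 M Na diphosphate, pH 6.4 or 7.0, shaken 2 h RT, filtered, diluted to 1 mg/ml.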

[5] = target: T4, human NPY5 receptor (hY5R) (Homo sapiens, UniProt Q15761); assay: HTRF cAMP Gi assay, hY5R
T4 sequence (Q15761 1-445): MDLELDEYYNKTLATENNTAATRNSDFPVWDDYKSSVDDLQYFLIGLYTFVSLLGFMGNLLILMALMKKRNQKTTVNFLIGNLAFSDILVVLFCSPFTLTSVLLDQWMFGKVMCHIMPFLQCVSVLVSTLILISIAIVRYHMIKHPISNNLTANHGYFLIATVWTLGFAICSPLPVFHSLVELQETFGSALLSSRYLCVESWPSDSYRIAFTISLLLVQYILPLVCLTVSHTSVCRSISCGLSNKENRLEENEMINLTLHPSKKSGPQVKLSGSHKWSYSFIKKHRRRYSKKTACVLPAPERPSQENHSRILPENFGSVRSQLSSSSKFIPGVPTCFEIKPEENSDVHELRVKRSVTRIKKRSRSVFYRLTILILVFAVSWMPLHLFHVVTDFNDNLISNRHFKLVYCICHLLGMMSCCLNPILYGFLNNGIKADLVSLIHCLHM

[6] = target: T5, human NPY2 receptor (NPY2R) (human, UniProt P49146); assay: competition
T5 chain: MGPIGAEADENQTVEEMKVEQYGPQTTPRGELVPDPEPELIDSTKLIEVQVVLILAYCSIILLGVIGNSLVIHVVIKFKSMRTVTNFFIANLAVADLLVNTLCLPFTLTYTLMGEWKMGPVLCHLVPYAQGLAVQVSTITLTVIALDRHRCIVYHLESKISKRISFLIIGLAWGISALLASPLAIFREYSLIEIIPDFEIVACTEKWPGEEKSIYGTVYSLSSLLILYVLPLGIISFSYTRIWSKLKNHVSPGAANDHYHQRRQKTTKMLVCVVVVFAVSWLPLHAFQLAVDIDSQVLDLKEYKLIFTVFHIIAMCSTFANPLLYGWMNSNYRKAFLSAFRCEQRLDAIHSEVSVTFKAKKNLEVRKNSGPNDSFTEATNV

| Molecule | EC50 [1] | EC50 [2] | Ki [3] | Ki [4] | Acute Food Intake 24 h [% vehicle] (NMRI mice) | Sol6 (Solubility determination) | Sol7 (Solubility determination) | EC50 [5] | Ki [6] |
| --- | --- | --- | --- | --- | --- | --- | --- | --- | --- |
| CC[C@H](C)[C@H](NC(=O)[C@H](CCC(=O)O)NC(=O)[C@H](CCC(=O)O)NC(=O)[C@@H]1CCCN1C(=O)[C@@H](NC(=O)[C@H](C)NC(=O)[C@H](CC(=O)O)NC(=O)[C@H](C)NC(=O)[C@H](CCC(=O)O)NC(=O)[C@@H]1CCCN1C(=O)[C@H](CCCCNC(=O)CCCCCNC(=O)CC[C@H](NC(=O)CCCCCCCCCCCCCCCCC(=O)O)C(=O)O)NC(=O)[C@H](CCC(=O)O)NC(=O)[C@@H]1CCCN1C(=O)[C@H](C)NC(=O)CC(C)C)[C@@H](C)O)C(=O)N[C@@H](CCC(N)=O)C(=O)N[C@@H](CCCNC(=N)N)C(=O)N[C@@H](Cc1ccc(O)cc1)C(=O)N[C@@H](Cc1ccc(O)cc1)C(=O)N[C@H](C(=O)N[C@@H](CO)C(=O)N[C@@H](CC(C)C)C(=O)N[C@@H](CCCNC(=N)N)C(=O)N[C@@H](Cc1c[nH]cn1)C(=O)N[C@@H](Cc1ccc(O)cc1)C(=O)N[C@@H](Cc1ccc(O)cc1)C(=O)N[C@@H](CC(N)=O)C(=O)N[C@@H](Cc1c[nH]c2ccccc12)C(=O)N[C@@H](CC(C)C)C(=O)N[C@H](C(=O)N[C@@H](CCCNC(=N)N)C(=O)N[C@@H](CCC(N)=O)C(=O)N[C@@H](CCCNC(=N)N)C(=O)N[C@@H](Cc1ccc(O)cc1)C(N)=O)[C@@H](C)O)C(C)C [Compound 7, N{alpha-4}-(3-methylbutanoyl)-N{epsilon-7}-(6-[(4S)-4-carboxy-4-(17-carboxyheptadecanamido)butanamido]hexanoyl)[4A,7K,9E,10A,13T,17I,18Q,22V,28Y,30W,31L]-hPYY(4-36)] | > 5000 nM | > 5000 nM | 1.04 nM | 3.1 nM | 38 % vehicle | 8.9 mg/mL | 9.2 mg/mL | > 5000 nM |  |
| CC(C)CC(=O)N[C@@H](C)C(=O)N1CCC[C@H]1C(=O)N[C@@H](C)C(=O)N[C@@H](CCCCNC(=O)CCCCCNC(=O)CC[C@H](NC(=O)CCCCCCCCCCCCCCCCC(=O)O)C(=O)O)C(=O)N1CCC[C@H]1C(=O)N[C@@H](CCC(=O)O)C(=O)N[C@@H](CCC(=O)O)C(=O)N[C@@H](CC(=O)O)C(=O)N[C@@H](C)C(=O)N[C@H](C(=O)N1CCC[C@H]1C(=O)N[C@@H](CCC(=O)O)C(=O)N[C@@H](CCC(=O)O)C(=O)N[C@@H](CC(C)C)C(=O)N[C@@H](CCC(N)=O)C(=O)N[C@@H](CCCNC(=N)N)C(=O)N[C@@H](Cc1ccc(O)cc1)C(=O)N[C@@H](Cc1ccc(O)cc1)C(=O)N[C@H](C(=O)N[C@@H](CO)C(=O)N[C@@H](CC(C)C)C(=O)N[C@@H](CCCNC(=N)N)C(=O)N[C@@H](Cc1c[nH]cn1)C(=O)N[C@@H](Cc1ccc(O)cc1)C(=O)N[C@@H](Cc1ccc(O)cc1)C(=O)N[C@@H](CC(N)=O)C(=O)N[C@@H](Cc1c[nH]c2ccccc12)C(=O)N[C@@H](CC(C)C)C(=O)N[C@H](C(=O)N[C@@H](CCCNC(=N)N)C(=O)N[C@@H](CCC(N)=O)C(=O)N[C@@H](CCCNC(=N)N)C(=O)N[C@@H](Cc1ccc(O)cc1)C(N)=O)[C@@H](C)O)C(C)C)[C@@H](C)O [Compound 26, N{alpha-4}-(3-methylbutanoyl)-N{epsilon-7}-(6-[(4S)-4-carboxy-4-(17-carboxyheptadecanamido)butanamido]hexanoyl)[4A,6A,7K,9E,13T,18Q,22V,28Y,30W,31L]-hPYY(4-36)] |  |  | 5.64 nM |  | 53 % vehicle | 9.2 mg/mL | 9.1 mg/mL | > 5000 nM |  |
| Isovaleryl-APEK([Ahx-γGlu-C18 diacid])PEAEASPEELQRYYVSLRHYYNWLTRQRY-NH2 [Compound 122] |  |  |  |  |  |  |  |  | 2.73 nM |
